Laboratory results taken from ChEMBL document CHEMBL1201862, “PubChem BioAssay data set” (2004).
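Cells were grown in 96-well plates and exposed to each compound for 48 hours at five concentrations; endpoints were interpolated linearly between bracketing concentrations, or set to the highest concentration if not reached. GI50 marks 50% less growth.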 Activity calls are given as the source filed them. No stated cut-off is given here; in the data, active = GI50 up to about 1.1 µM and inactive = higher.

Key:
Assay in all cases: growth of human tumour cells (NCI), 48 h
A498 = tested on: A498
Hs-578T = tested on: Hs-578T
M14 = tested on: M14
MDA-MB-231 = tested on: MDA-MB-231
NCI-H226 = tested on: NCI-H226
NCI/ADR-RES = tested on: NCI/ADR-RES
PC-3 = tested on: PC-3
SK-MEL-2 = tested on: SK-MEL-2
SR = tested on: SR
T47D = tested on: T47D
TK-10 = tested on: TK-10
U-251 = tested on: U-251
UACC-257 = tested on: UACC-257
786-0 = tested on: 786-0
MDA-MB-435 = tested on: MDA-MB-435
MDA-N = tested on: MDA-N

Measured: GI50

CC(=O)OC(OC(C)=O)n1cc(C=O)c2ccccc21
inactive: A498 36.7 µM | Hs-578T > 100 µM | M14 > 100 µM | MDA-MB-231 > 100 µM | NCI-H226 > 100 µM | NCI/ADR-RES > 100 µM | PC-3 > 100 µM | SK-MEL-2 > 100 µM | SR > 100 µM | T47D > 100 µM | TK-10 > 100 µM | U-251 > 100 µM | UACC-257 > 100 µM

COc1ccc(/C(C#N)=C/c2ccc(OC)c(OC)c2)cc1
inactive: 786-0 > 100 µM | A498 > 100 µM | Hs-578T > 100 µM | M14 > 100 µM | MDA-MB-231 > 100 µM | MDA-MB-435 83.4 µM | MDA-N > 100 µM | NCI-H226 > 100 µM | NCI/ADR-RES > 100 µM | PC-3 > 100 µM | SK-MEL-2 > 100 µM | T47D 49.5 µM | TK-10 > 100 µM | U-251 > 100 µM | UACC-257 > 100 µM

CN(/N=C1\C(=O)Nc2ccccc21)c1ccccc1
inactive: A498 > 100 µM | Hs-578T 29.6 µM | M14 74.6 µM | MDA-MB-231 9.4 µM | MDA-MB-435 > 100 µM | MDA-N 40.6 µM | NCI-H226 > 100 µM | PC-3 45.4 µM | SK-MEL-2 > 100 µM | SR 94 µM | T47D 34.7 µM | TK-10 69.2 µM | U-251 74.8 µM | UACC-257 > 100 µM

COC(=O)c1cn(CC(O)CCl)nn1 (configuration not stated)
inactive: A498 > 100 µM | Hs-578T > 100 µM | M14 > 100 µM | MDA-MB-231 > 100 µM | MDA-MB-435 > 100 µM | MDA-N > 100 µM | NCI/ADR-RES > 100 µM | PC-3 > 100 µM | SK-MEL-2 > 100 µM | T47D > 100 µM | TK-10 > 100 µM | U-251 > 100 µM | UACC-257 > 100 µM

CC(=O)OCC1OC(n2c3c(c(-c4ccco4)c(C#N)c2=S)CCC3)C(OC(C)=O)C(OC(C)=O)C1OC(C)=O (configuration not stated)
inactive: 786-0 49.7 µM | Hs-578T 40.9 µM | M14 > 100 µM | MDA-MB-435 68.9 µM | MDA-N > 100 µM | NCI/ADR-RES 37.8 µM | PC-3 49.7 µM | SK-MEL-2 > 100 µM | SR 31.6 µM | TK-10 69.3 µM | U-251 54.6 µM | UACC-257 > 100 µM

CCCNC(=S)N/C=C1/C(=O)Oc2ccccc2C1=O
inactive: 786-0 > 100 µM | A498 88.9 µM | Hs-578T 50.4 µM | M14 > 100 µM | MDA-MB-231 > 100 µM | MDA-MB-435 > 100 µM | MDA-N > 100 µM | NCI-H226 > 100 µM | NCI/ADR-RES > 100 µM | PC-3 > 100 µM | SK-MEL-2 75.3 µM | SR > 100 µM | TK-10 > 100 µM | U-251 > 100 µM | UACC-257 > 100 µM
